Patent publication US20170189507A1, “NOVEL PEPTIDES AND COMBINATION OF PEPTIDES FOR USE IN IMMUNOTHERAPY AGAINST VARIOUS CANCERS” (immatics biotechnologies GmbH, priority 2015, published 2017)

Test system: HLA-A*24
Experiment: MHC binding assay (UV-ligand exchange, beta2m ELISA), HLA-A*24
Set-up: species or system human
Settings: MHC class I binding score, peptide exchange yield
Text: Candidate peptides for T cell based therapies according to the present invention were further tested for their MHC binding capacity (affinity). The individual peptide-MHC complexes were produced by UV-ligand exchange, where a UV-sensitive peptide is cleaved upon UV-irradiation, and exchanged with the peptide of interest as analyzed. Only peptide candidates that can effectively bind and stabilize the peptide-receptive MHC molecules prevent dissociation of the MHC complexes. To determine the yield of the exchange reaction, an ELISA was performed based on the detection of the light chain ([…] of stabilized MHC complexes. The assay was performed as generally described in Rodenko et al. (Rodenko et al., 2006).
96 well MAXISorp plates (NUNC) were coated over night with 2 ug/ml streptavidin in PBS at room temperature, washed 4× and blocked for 1 h at 37° C. in 2% BSA containing blocking buffer. Refolded HLA-A*02:01/MLA-001 monomers served as standards, covering the range of 15-500 ng/ml. Peptide-MHC monomers of the UV-exchange reaction were diluted 100 fold in blocking buffer. Samples were incubated for 1 h at 37° C., washed four times, incubated with 2 ug/ml HRP conjugated anti-β2m for 1 h at 37° C., washed again and detected with TMB solution that is stopped with […]. Absorption was measured at 450 nm. Candidate peptides that show a high exchange yield (preferably higher than 50%, most preferred higher than 75%) are generally preferred for a generation and production of antibodies or fragments thereof, and/or T cell receptors or fragments thereof, as they show sufficient avidity to the MHC molecules and prevent dissociation of the MHC complexes.

Substance | Peptide exchange
160 (VYTLDIPVL; listed as Homo sapiens) [compound 160] | ++++ (>=75% = ++++)
161 (IYLVSIPEL; listed as Homo sapiens) [compound 161] | ++++ (>=75% = ++++)
166 (YYVESGKLF; listed as Homo sapiens) [compound 166] | ++++ (>=75% = ++++)
168 (KYQDILETI; listed as Homo sapiens) [compound 168] | ++++ (>=75% = ++++)

The remaining lines, values ahead:

Peptide exchange | Substance
++++ (>=75% = ++++) | 172 (TYTTVPRVAF; listed as Homo sapiens) [compound 172]
++++ (>=75% = ++++) | 173 (IYSWILDHF; listed as Homo sapiens) [compound 173]
++++ (>=75% = ++++) | 175 (YYEVHKELF; listed as Homo sapiens) [compound 175]
++++ (>=75% = ++++) | 177 (VYPWLGALL; listed as Homo sapiens) [compound 177]
++++ (>=75% = ++++) | 179 (MYDSYWRQF; listed as Homo sapiens) [compound 179]
++++ (>=75% = ++++) | 181 (LYLDIINLF; listed as Homo sapiens) [compound 181]
++++ (>=75% = ++++) | 184 (VFQNFPLLF; listed as Homo sapiens) [compound 184]
++++ (>=75% = ++++) | 186 (IFPQFLYQF; listed as Homo sapiens) [compound 186]
++++ (>=75% = ++++) | 187 (TYLRDQHFL; listed as Homo sapiens) [compound 187]
++++ (>=75% = ++++) | 192 (SYALLTYMI; listed as Homo sapiens) [compound 192]
++++ (>=75% = ++++) | 193 (RFHPTPLLL; listed as Homo sapiens) [compound 193]
+ (<20% = +) | 194 (EFGSLHLEFL; listed as Homo sapiens) [compound 194]
++++ (>=75% = ++++) | 195 (TYSVSFPMF; listed as Homo sapiens) [compound 195]
++++ (>=75% = ++++) | 202 (VYWDSAGAAHF; listed as Homo sapiens) [compound 202]
++++ (>=75% = ++++) | 210 (IYTMIYRNL; listed as Homo sapiens) [compound 210]
++++ (>=75% = ++++) | 211 (YYLEVGKTLI; listed as Homo sapiens) [compound 211]
++++ (>=75% = ++++) | 216 (QYSSVFKSL; listed as Homo sapiens) [compound 216]
++++ (>=75% = ++++) | 217 (FFPPTRQMGLLF; listed as Homo sapiens) [compound 217]
++++ (>=75% = ++++) | 227 (IFLDYEAGTLSF; listed as Homo sapiens) [compound 227]
++++ (>=75% = ++++) | 228 (KYTSWYVAL; listed as Homo sapiens) [compound 228]
++++ (>=75% = ++++) | 267 (KYMVYPQTF; listed as Homo sapiens) [compound 267]
++++ (>=75% = ++++) | 271 (LYHDIFSRL; listed as Homo sapiens) [compound 271]
++++ (>=75% = ++++) | 272 (QYLQDAYSF; listed as Homo sapiens) [compound 272]
++++ (>=75% = ++++) | 274 (AYLHSHALI; listed as Homo sapiens) [compound 274]
++++ (>=75% = ++++) | 276 (VYGFQWRHF; listed as Homo sapiens) [compound 276]
++++ (>=75% = ++++) | 277 (VYQGHTALL; listed as Homo sapiens) [compound 277]
++++ (>=75% = ++++) | 278 (RYISDQLFTNF; listed as Homo sapiens) [compound 278]
++++ (>=75% = ++++) | 280 (RYPDNLKHLYL; listed as Homo sapiens) [compound 280]
++++ (>=75% = ++++) | 282 (KFVDSTFYL; listed as Homo sapiens) [compound 282]
++++ (>=75% = ++++) | 289 (KYPVEWAKF; listed as Homo sapiens) [compound 289]

Test system: CD8+ T cells
Experiment: In vitro immunogenicity: T-cell priming with aAPCs loaded with peptide/MHC complexes and anti-CD28 antibody, pMHC multimer readout
Type: cell-based, human
Settings: in vitro immunogenicity of HLA class I peptides; peptide-specific multimer+ wells after aAPC priming of CD8+ T cells
Description: In an aspect, the peptides are pre-screened for immunogenicity before being included in the warehouse. By way of example, and not limitation, the immunogenicity of the peptides included in the warehouse is determined by a method comprising in vitro T-cell priming through repeated stimulations of CD8+ T cells from healthy donors with artificial antigen presenting cells loaded with peptide/MHC complexes and anti-CD28 antibody.
In order to obtain information regarding the immunogenicity of the TUMAPs of the present invention, the inventors performed investigations using an in vitro T-cell priming assay based on repeated stimulations of CD8+ T cells with artificial antigen presenting cells (aAPCs) loaded with peptide/MHC complexes and anti-CD28 antibody.
In order to perform in vitro stimulations by artificial antigen presenting cells loaded with peptide-MHC complex (pMHC) and anti-CD28 antibody, the inventors first isolated CD8+ T cells from fresh HLA-A*02 leukapheresis products via positive selection using CD8 microbeads (Miltenyi Biotec, Bergisch-Gladbach, Germany) of healthy donors obtained from the University clinics Mannheim, Germany, after informed consent.
PBMCs and isolated CD8+ lymphocytes were incubated in T-cell medium (TCM) until use consisting of RPMI-Glutamax (Invitrogen, Karlsruhe, Germany) supplemented with 10% heat inactivated human AB serum (PAN-Biotech, Aidenbach, Germany), 100 U/ml Penicillin/100 μg/ml Streptomycin (Cambrex, Cologne, Germany), 1 mM sodium pyruvate (CC Pro, Oberdorla, Germany), 20 μg/ml Gentamycin (Cambrex). 2.5 ng/ml IL7 (PromoCell, Heidelberg, Germany) and 10 U/ml IL-2 (Novartis Pharma, Nurnberg, Germany) were also added to the TCM at this step.
Generation of pMHC/anti-CD28 coated beads, T-cell stimulations and readout was performed in a highly defined in vitro system using four different pMHC molecules per stimulation condition and 8 different pMHC molecules per readout condition.
The purified co-stimulatory mouse IgG2a anti human CD28 Ab 9.3 (Jung et al., 1987) was chemically biotinylated using Sulfo-N-hydroxysuccinimidobiotin as recommended by the manufacturer (Perbio, Bonn, Germany). Beads used were 5.6 μm diameter streptavidin coated polystyrene particles (Bangs Laboratories, Illinois, USA).
pMHC used for positive and negative control stimulations were A*0201/MLA-001 (peptide […] (SEQ ID NO. 303) from modified Melan-A/MART-1) and A*0201/DDX5-001 ([…] from DDX5, SEQ ID NO. 304), respectively.
800.000 beads/200 μl were coated in 96-well plates in the presence of 4×12.5 ng different biotin-pMHC, washed and 600 ng biotin anti-CD28 were added subsequently in a volume of 200 μl. Stimulations were initiated in 96-well plates by co-incubating […] CD8+ T cells with 2×10^5 washed coated beads in 200 μl TCM supplemented with 5 ng/ml IL-12 (PromoCell) for 3 days at 37° C. Half of the medium was then exchanged by fresh TCM supplemented with 80 U/ml IL-2 and incubating was continued for 4 days at 37° C. This stimulation cycle was performed for a total of three times. For the pMHC multimer readout using 8 different pMHC molecules per condition, a twodimensional combinatorial coding approach was used as previously described (Andersen et al., 2012) with minor modifications encompassing coupling to 5 different fluorochromes. Finally, multimeric analyses were performed by staining the cells with Live/dead near IR dye (Invitrogen, Karlsruhe, Germany), CD8-FITC antibody clone SK1 (BD, Heidelberg, Germany) and fluorescent pMHC multimers. For analysis, a BD LSRII SORP cytometer equipped with appropriate lasers and filters was used. Peptide specific cells were calculated as percentage of total CD8+ cells. Evaluation of multimeric analysis was done using the FlowJo software (Tree Star, Oregon, USA). In vitro priming of specific multimer+ CD8+ lymphocytes was detected by comparing to negative control stimulations.

Substance | Wells positive [%]
5 (GIVAHIQEV; listed as Homo sapiens) [compound 5] | + (<20% = +)
18 (ILLDLTDNRL; listed as Homo sapiens) [compound 18] | + (<20% = +)
23 (SLFSDEFKV; listed as Homo sapiens) [compound 23] | ++++ (>=70% = ++++)
26 (ALQEELTEL; listed as Homo sapiens) [compound 26] | + (<20% = +)
29 (YLLDPSITL; listed as Homo sapiens) [compound 29] | + (<20% = +)
31 (TITETTVEV; listed as Homo sapiens) [compound 31] | + (<20% = +)
35 (FLLPFSTVYL; listed as Homo sapiens) [compound 35] | + (<20% = +)
90 (FLQDLEQRL; listed as Homo sapiens) [compound 90] | + (<20% = +)
141 (FLDKVLVAA; listed as Homo sapiens) [compound 141] | + (<20% = +)
149 (ILNTHITEL; listed as Homo sapiens) [compound 149] | + (<20% = +)
196 (LYIDRPLPYL; listed as Homo sapiens) [compound 196] | ++++ (>=70% = ++++)
197 (EYSLFPGQVVI; listed as Homo sapiens) [compound 197] | + (<20% = +)
207 (AYVVFVSTL; listed as Homo sapiens) [compound 207] | + (<20% = +)
218 (YYKSTSSAF; listed as Homo sapiens) [compound 218] | + (<20% = +)
230 (KLQNIMMLL; listed as Homo sapiens) [compound 230] | ++++ (>=70% = ++++)
268 (QYLGQIQHI; listed as Homo sapiens) [compound 268] | + (<20% = +)
269 (YFIDSTNLKTHF; listed as Homo sapiens) [compound 269] | + (<20% = +)
285 (HYPPVQVLF; listed as Homo sapiens) [compound 285] | + (<20% = +)
